Laboratory results taken from patent US20190134150A1, “THERAPEUTIC METHODS FOR EXCITATORY NEUROTOXICITY-RELATED INJURIES” (Biocells (Beijing) Biotech Co., Ltd., priority 2016, published 2019).
“And” between values parts separate entries of the source, which are not always exact repeats. Identical values can stand only once. No end group written: not given here.

What was measured:
[1] = tested on: MCAO model rats; test: Cerebral infarction volume (TTC staining) in MCAO model rats; details: rat, in vivo
Method: The focal cerebral ischemia-reperfusion model was prepared according to the reversible middle cerebral artery occlusion (MCAO) suture method proposed by Longa with modifications in view of the anatomical structure of the rat brain. The rats were anesthetized by intraperitoneal administration of 10% chloral hydrate at a dose of […]. After anesthetization, a cut was created at the cervical midline, and the common carotid artery (CCA), external carotid artery (ECA) and pterygopalatine artery were exposed. The head portion (0.5 cm) of a monofilament nylon fishing line (0.26 mm) was coated with paraffin and a mark was made at 20 mm. All rats were inserted through the right CCA incision, and the pterygopalatine artery was temporarily clamped to prevent mis-insertion. The length of the occlusion line was about 18-20 mm from the bifurcation of CCA depending on the animal's weight, thereby occluding middle cerebral artery on the right side. The skin was then sewed, and the tail end of the occlusion line was partially fixed to the skin. After a period of ischemia for 2 hours, the occlusion line was carefully pulled out to form a reperfusion. The procedure steps for the sham control were the same as the surgery group, except for insertion of a nylon fishing line. The body temperature was maintained at 37±0.5° C. during the ischemia period and 2 h after reperfusion.
The used animals were male adult SD rats (Vittalia) of SPF grade with body weight of 220-250 g.
The experimental animals were divided into the negative control group, sham group, model group, positive drug Enbipu group, NA-1 group, YE-NA-1 group and P6 group. A saline solution, positive drug Enbipu, NA-1 (10 mg/kg), YE-NA-1 (10 mg/kg) and P6 (10 mg/kg, 3 mg/kg and 1 mg/kg) were respectively administered to individual group of rats via tail vein injection at 1 hour after ischemia. No drugs were administered to the normal group and the sham group.
The rats were sacrificed by decapitation after scoring. The brain tissues were quickly removed and placed in a refrigerator at −20° C. After 10 minutes, the tissues were placed in a room temperature environment. The brains were placed in a rat brain section mold. After the olfactory bulb, cerebellum and low brain stem were removed, the brains were coronally cut five times at 2 mm thickness as shown in the profile to obtain six continuous raw coronal slices. Then, the brain sections were quickly placed in a 5 ml solution containing 2% TTC, and incubated at 37° C. for 30 minutes in the dark, during which the brain sections were flipped once every 5 minutes. With the TTC staining, the normal tissue would be rose red, and the infarcted tissue would be unstained and retained white. Each group of brain sections was arranged neatly, and photographed. The photos were processed by an image analysis system software and statistically analyzed. The infarction area of each brain section was calculated, and multiplied by the thickness of each brain section (2 mm). The products of the infarction area of individual brain section multiplied by the thickness were summed to obtain the cerebral infarction volume for each animal. The volumes were expressed as percentages accounting for the cerebral hemisphere to eliminate the effects of cerebral edema.

[2] = molecular target: PDZ1/2 domain; test: SPR, Biacore 3000, PDZ1/2 amine-coupled on CM5 chip, peptide as analyte, 1:1 model

YGRKKRRQRRRKLSSIESDV [NA-1, reference compound]
Mean of infarction volume percentage [1]: 38.56%

YGRKKRRQRRRYEKLTTLDTGGV [P6]
Mean of infarction volume percentage [1]: 26.71% and 37.89% and 43.75%
Mean of infarction volume percentage ([1]; 1 mg/kg): 41.56%
Reduction of infarction volume percentage vs model group ([1]; 1 mg/kg): 9.57%
Mean of infarction volume percentage ([1]; 3 mg/kg): 38.34%
Reduction of infarction volume percentage vs model group ([1]; 3 mg/kg): 16.58%
effect on cerebral infarction volume ([1]; 3 mg/kg): desirably reduced the cerebral infarction volume
Mean of infarction volume percentage ([1]; 10 mg/kg): 19.54%
Reduction of infarction volume percentage vs model group ([1]; 10 mg/kg): 57.48%
reduction of cerebral infarction volume ([1]; 10 mg/kg): about 50%

control chimeric peptide NA-1
Kd [2]: 75.3 nM

YGRKKRRQRRRYEKLSSIESDV [YE-NA-1, reference compound]
Mean of infarction volume percentage [1]: 33.96%

YGRKKRRQRRRYEKLSSIESDV [chimeric peptide YE-NA-1]
Kd [2]: 54.4 nM
